Source: ChEMBL document CHEMBL1201862, “PubChem BioAssay data set” (2004)
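Grown in 96-well plates, cells were treated for 48 hours with each compound at five concentrations. Insufficient inhibition: endpoint recorded as highest concentration tested. GI50 marks 50% less growth.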 Activity calls are given as the source filed them. Rule as the data show it: active = GI50 up to about 1.1 µM and inactive = higher.

Columns and labels:
Assay in all cases: NCI anticancer screen, dose series, 48 h
786-0 = tested on: 786-0
A549 = tested on: A549
ACHN = tested on: ACHN
CAKI-1 = tested on: CAKI-1
CCRF-CEM = tested on: CCRF-CEM
HL-60 = tested on: HL-60
IGROV-1 = tested on: IGROV-1
K562 = tested on: K562
LOX IMVI = tested on: LOX IMVI
MDA-N = tested on: MDA-N
MOLT-4 = tested on: MOLT-4
Malme-3M = tested on: Malme-3M
OVCAR-4 = tested on: OVCAR-4
RXF 393 = tested on: RXF 393
SF-539 = tested on: SF-539
SK-MEL-28 = tested on: SK-MEL-28
SN12C = tested on: SN12C
T47D = tested on: T47D
UACC-257 = tested on: UACC-257

| SMILES | GI50 (786-0) | GI50 (A549) | GI50 (ACHN) | GI50 (CAKI-1) | GI50 (CCRF-CEM) | GI50 (HL-60) | GI50 (IGROV-1) | GI50 (K562) | GI50 (LOX IMVI) | GI50 (MDA-N) | GI50 (MOLT-4) | GI50 (Malme-3M) | GI50 (OVCAR-4) | GI50 (RXF 393) | GI50 (SF-539) | GI50 (SK-MEL-28) | GI50 (SN12C) | GI50 (T47D) | GI50 (UACC-257) |
| --- | --- | --- | --- | --- | --- | --- | --- | --- | --- | --- | --- | --- | --- | --- | --- | --- | --- | --- | --- |
| O=C(c1ccccc1)c1ccc2[nH]c(-c3c(Cl)c(Cl)c(Cl)c(Cl)c3-c3nnc(-c4ccccc4)o3)nc2c1 | 36.6 µM (inactive) | 25.8 µM (inactive) | 69.7 µM (inactive) | 40.4 µM (inactive) | 46.3 µM (inactive) | 11.5 µM (inactive) | 29.5 µM (inactive) | 4.67 µM (inactive) | 39.4 µM (inactive) | 3.45 µM (inactive) | 14.8 µM (inactive) | 17.9 µM (inactive) | 20.7 µM (inactive) | 5.47 µM (inactive) | 19.4 µM (inactive) | > 100 µM (inactive) | 22.4 µM (inactive) | 23.9 µM (inactive) | 80.2 µM (inactive) |
| Nc1nc(Cl)c(C=O)c(NCC2(CO)CCC2)n1 | 76 µM (inactive) | 91.6 µM (inactive) | 37.8 µM (inactive) | 13.6 µM (inactive) | 12.9 µM (inactive) | 4.5 µM (inactive) | 12.3 µM (inactive) | 3.83 µM (inactive) | 12.4 µM (inactive) | 21.3 µM (inactive) | 18.3 µM (inactive) | 43.1 µM (inactive) | 14.3 µM (inactive) | 17.8 µM (inactive) | 32.7 µM (inactive) | 34.8 µM (inactive) | 45.2 µM (inactive) | 33.7 µM (inactive) | 24.8 µM (inactive) |
| OC1C2[C@@H](O)CCCN2C[C@@H](O)[C@H]1O (stereo not given in full) | > 100 µM (inactive) | > 100 µM (inactive) | > 100 µM (inactive) | > 100 µM (inactive) | > 100 µM (inactive) | > 100 µM (inactive) | > 100 µM (inactive) | > 100 µM (inactive) | > 100 µM (inactive) | > 100 µM (inactive) | > 100 µM (inactive) | > 100 µM (inactive) | > 100 µM (inactive) | > 100 µM (inactive) | > 100 µM (inactive) | > 100 µM (inactive) | > 100 µM (inactive) | > 100 µM (inactive) | > 100 µM (inactive) |
| C[C@H](CCC(=O)O)[C@H]1CC[C@H]2[C@@H]3[C@H](O)C[C@@H]4C[C@H](O)CC[C@]4(C)[C@H]3CC[C@]12C [CHENODIOL] | 36.3 µM (inactive) | 34.8 µM (inactive) | 46.8 µM (inactive) | 37.2 µM (inactive) | 33.1 µM (inactive) | 34 µM (inactive) | 27 µM (inactive) | 35.6 µM (inactive) | 32.5 µM (inactive) | 37.7 µM (inactive) | 24.7 µM (inactive) | 32.2 µM (inactive) | 51.9 µM (inactive) | 44.7 µM (inactive) | 24.7 µM (inactive) | 42.6 µM (inactive) | 43.2 µM (inactive) | 40.2 µM (inactive) | 41.8 µM (inactive) |
| O=C(Nc1sccc1S(=O)(=O)c1ccc(Cl)cc1)c1ccc(Cl)cc1 | 52.7 µM (inactive) | 94.8 µM (inactive) | 99.1 µM (inactive) | 80.4 µM (inactive) | > 100 µM (inactive) | > 100 µM (inactive) | > 100 µM (inactive) | > 100 µM (inactive) | > 100 µM (inactive) | > 100 µM (inactive) | > 100 µM (inactive) | 50.6 µM (inactive) | 25.6 µM (inactive) | 65.6 µM (inactive) | 39.9 µM (inactive) | > 100 µM (inactive) | > 100 µM (inactive) | > 100 µM (inactive) | > 100 µM (inactive) |
| NNC(=O)c1ccccc1Nc1ccccc1C(=O)NN | > 100 µM (inactive) | > 100 µM (inactive) | > 100 µM (inactive) | > 100 µM (inactive) | > 100 µM (inactive) | > 100 µM (inactive) | > 100 µM (inactive) | > 100 µM (inactive) | > 100 µM (inactive) | > 100 µM (inactive) | > 100 µM (inactive) | > 100 µM (inactive) | > 100 µM (inactive) | > 100 µM (inactive) | > 100 µM (inactive) | > 100 µM (inactive) | > 100 µM (inactive) | > 100 µM (inactive) | > 100 µM (inactive) |
| O=C(C(Cl)=C(N1CCCCC1)N1CCCCC1)C(Cl)Cl | > 100 µM (inactive) | > 100 µM (inactive) | > 100 µM (inactive) | 21.4 µM (inactive) | > 100 µM (inactive) | > 100 µM (inactive) | > 100 µM (inactive) | > 100 µM (inactive) | > 100 µM (inactive) | > 100 µM (inactive) | > 100 µM (inactive) | > 100 µM (inactive) | > 100 µM (inactive) | > 100 µM (inactive) | > 100 µM (inactive) | > 100 µM (inactive) | > 100 µM (inactive) | > 100 µM (inactive) | > 100 µM (inactive) |
| CN1CCC2(c3ccccc3)CC(=O)/C(=C/c3ccc(Cl)c(Cl)c3)C1C2.[O-][Cl+3]([O-])([O-])O (stereo not given) | 2.37 µM (inactive) | 3.4 µM (inactive) | 1.77 µM (inactive) | 3.94 µM (inactive) | 2.02 µM (inactive) | 0.333 µM (active) | 1.95 µM (inactive) | 2.52 µM (inactive) | 1.71 µM (inactive) | 4.42 µM (inactive) | 2.6 µM (inactive) | 11.5 µM (inactive) | 2.51 µM (inactive) | 2.61 µM (inactive) | 1.98 µM (inactive) | 2.1 µM (inactive) | 1.85 µM (inactive) | 4.7 µM (inactive) | 9.46 µM (inactive) |
| C=C1C(=O)O[C@@H]2C[C@@H]3[C@]4(CC[C@]5(C)[C@@H]([C@H](C)CC/C=C(\C)C=O)CC[C@@]35C)C[C@]4(CCC(=O)OC)[C@H]12 | 1.71 µM (inactive) | 6.64 µM (inactive) | 2.06 µM (inactive) | 3.26 µM (inactive) | 0.222 µM (active) | 0.367 µM (active) | 2.13 µM (inactive) | 0.845 µM (active) | 1.28 µM (inactive) | 1.61 µM (inactive) | 0.979 µM (active) | 1.59 µM (inactive) | 1.7 µM (inactive) | 1.89 µM (inactive) | 2 µM (inactive) | 2 µM (inactive) | 1.9 µM (inactive) | 1.9 µM (inactive) | 0.454 µM (active) |
| COc1cc(C2c3cc4c(cc3OC(NCCc3ccccc3)C2C)OCO4)cc(OC)c1OC (stereo not given) | 0.465 µM (active) | 0.452 µM (active) | 1.36 µM (inactive) | 0.291 µM (active) | 0.343 µM (active) | 0.208 µM (active) | 0.367 µM (active) | 0.269 µM (active) | 0.497 µM (active) | 0.0638 µM (active) | 0.515 µM (active) | 0.231 µM (active) | 0.778 µM (active) | 0.203 µM (active) | 0.286 µM (active) | 18.3 µM (inactive) | 0.698 µM (active) | 0.295 µM (active) | 6.34 µM (inactive) |
